# Reference: patent US9695155B2, “Herbicidal substituted pyrimidinyloxy benzene compounds” (E. I. DU PONT DE NEMOURS AND COMPANY, priority 2013, dated 2017)
# Key:
# pigweed [1] = test: Test A preemergence; format: in vivo, Amaranthus retroflexus; settings: for Pigweed plant response rating (0 to 100 scale): 125 g ai/ha; for Pigweed plant response rating: 500 g ai/ha, 0 to 100 scale where 0 is no effect and 100 is complete control
# Outline: (§1)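 Scoring: eye-based comparison with untreated controls, 0 for no effect through 100 for complete control, at about day 10. Treatments: directed soil spray preemergence; foliar spray postemergence on 2–10 cm plants at the one- to two-leaf stage. Medium: loam soil with sand.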
# pigweed [2] = test: Test C postemergence; format: in vivo, Amaranthus retroflexus; settings: for Pigweed plant response rating: 31 g ai/ha; for Pigweed plant response rating / Plant response rating, Pigweed: scale 0 to 100 (0 no effect, 100 complete control)
# Outline: (§2)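 Visual injury score versus untreated controls, 0 = no effect, 100 = complete control, taken 13 to 15 days after treatment in the greenhouse. Pre-emergence pots held loam/sand; post-emergence plants grew in sphagnum peat/vermiculite mix and were sprayed at the 1- to 4-leaf stage.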
# kochia = test: Test C postemergence; format: in vivo, Kochia scoparia; settings: for Kochia plant response rating: 31 g ai/ha; for Kochia plant response rating / Plant response rating, Kochia: scale 0 to 100 (0 no effect, 100 complete control)
# Outline: as §2
# velvetleaf [3] = test: Test C postemergence; format: in vivo, Abutilon theophrasti; settings: for Velvetleaf plant response rating: 31 g ai/ha; for Velvetleaf plant response rating / Plant response rating, Velvetleaf: scale 0 to 100 (0 no effect, 100 complete control)
# Outline: as §2
# blackgrass = test: Test C postemergence; format: in vivo, Alopecurus myosuroides; settings: for Blackgrass plant response rating: 31 g ai/ha; for Blackgrass plant response rating / Plant response rating, Blackgrass: scale 0 to 100 (0 no effect, 100 complete control)
# Outline: as §2
# wheat = test: Test A postemergence; format: in vivo, Triticum aestivum; settings: 0 to 100 scale where 0 is no effect and 100 is complete control; for Wheat plant response rating: 125 g ai/ha; for Plant response rating, Wheat: 500 g ai/ha
# Outline: as §1
# morningglory [4] = test: Test A postemergence; format: in vivo, Ipomoea spp.; settings: 0 to 100 scale where 0 is no effect and 100 is complete control; for Morningglory plant response rating: 125 g ai/ha; for Plant response rating, Morningglory: 500 g ai/ha
# Outline: as §1
# barnyardgrass [5] = test: Test A preemergence; format: in vivo, Echinochloa crus-galli; settings: for Barnyardgrass plant response rating (0 to 100 scale, 0 is no effect, 100 is complete control): 125 g ai/ha; for Barnyardgrass plant response rating: 500 g ai/ha, 0 to 100 scale where 0 is no effect and 100 is complete control
# Outline: as §1
# Heteranthera limosa = test: Test B flooded paddy test; format: in vivo; settings: Flood, 250 g ai/ha; 0 to 100 scale where 0 is no effect and 100 is complete control
# Outline: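 2-leaf stage plants; pots flooded to 3 cm, compound added to paddy water, depth maintained. Greenhouse 13–15 d. Visual rating vs untreated controls, 0 (no effect) to 100 (complete control); dash = no result.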
# barnyardgrass [6] = test: Test C postemergence; format: in vivo, Echinochloa crus-galli; settings: for Barnyardgrass plant response rating: 31 g ai/ha, 13 to 15 days; for Barnyardgrass plant response rating / Plant response rating, Barnyardgrass: scale 0 to 100 (0 no effect, 100 complete control)
# Outline: as §2
# ragweed = test: Test C postemergence; format: in vivo, Ambrosia elatior; settings: for Ragweed plant response rating: 31 g ai/ha; for Ragweed plant response rating / Plant response rating, Ragweed: scale 0 to 100 (0 no effect, 100 complete control)
# Outline: as §2
# wild oat = test: Test C postemergence; format: in vivo, Avena fatua; settings: for Oat, Wild plant response rating: 31 g ai/ha; for Oat, Wild plant response rating / Plant response rating, Oat, Wild: scale 0 to 100 (0 no effect, 100 complete control)
# Outline: as §2
# morningglory [7] = test: Test C postemergence; format: in vivo, Ipomoea coccinea; settings: for Morningglory plant response rating: 31 g ai/ha; for Morningglory plant response rating / Plant response rating, Morningglory: scale 0 to 100 (0 no effect, 100 complete control)
# Outline: as §2
# velvetleaf [8] = test: Test A preemergence; format: in vivo, Abutilon theophrasti; settings: for Velvetleaf plant response rating (0 to 100 scale): 125 g ai/ha; for Velvetleaf plant response rating: 500 g ai/ha, 0 to 100 scale where 0 is no effect and 100 is complete control
# Outline: as §1
# morningglory [9] = test: Test A preemergence; format: in vivo, Ipomoea spp.; settings: for Morningglory plant response rating (0 to 100 scale): 125 g ai/ha; for Morningglory plant response rating: 500 g ai/ha, 0 to 100 scale where 0 is no effect and 100 is complete control
# Outline: as §1
# [10] = postemergence, visual rating, 13 to 15 days
# [11] = 125 g ai/ha, postemergence, visual rating
# [12] = Postemergence, 62 g ai/ha, 13 to 15 days
# [13] = 16 g ai/ha, postemergence, 0 is no effect, 100 is complete control
smiles,measurement,setting,value
N#Cc1cnn(-c2c(C#N)cccc2Oc2ncc(Cl)cn2)c1 [Compound 200],Pigweed plant response rating (0 to 100 scale),pigweed [1],100
same,Pigweed plant response rating,pigweed [1],100
same,Pigweed plant response rating,pigweed [2]; [10],75
same,"Plant response rating, Pigweed",pigweed [2]; [11],95
same,"Plant response rating (0 to 100), Pigweed","pigweed [2]; 250 g ai/ha, postemergence",95
same,"Plant response rating, Pigweed",pigweed [2]; [12],90
same,Kochia plant response rating,kochia; [10],80
same,"Plant response rating, Kochia",kochia; [11],98
same,"Plant response rating (0 to 100), Kochia","kochia; 250 g ai/ha, postemergence",100
same,"Plant response rating, Kochia",kochia; [12],95
same,Velvetleaf plant response rating,velvetleaf [3]; [10],20
same,"Plant response rating, Velvetleaf",velvetleaf [3]; [11],75
same,"Plant response rating (0 to 100), Velvetleaf","velvetleaf [3]; 250 g ai/ha, postemergence",70
same,"Plant response rating, Velvetleaf",velvetleaf [3]; [12],50
same,Blackgrass plant response rating,blackgrass; [10],5
same,"Plant response rating, Blackgrass",blackgrass; [11],10
same,"Plant response rating (0 to 100), Blackgrass","blackgrass; 250 g ai/ha, postemergence",35
same,"Plant response rating, Blackgrass",blackgrass; [12],5
same,Wheat plant response rating,wheat,40
same,"Plant response rating, Wheat",wheat,60
same,Morningglory plant response rating,morningglory [4],90
same,"Plant response rating, Morningglory",morningglory [4],100
same,"Barnyardgrass plant response rating (0 to 100 scale, 0 is no effect, 100 is complete control)",barnyardgrass [5],80
same,Barnyardgrass plant response rating,barnyardgrass [5],90
same,"Plant response rating, Ducksalad",Heteranthera limosa,95
same,Barnyardgrass plant response rating,"barnyardgrass [6]; postemergence, visual rating",0
same,"Plant response rating, Barnyardgrass",barnyardgrass [6]; [11],10
same,"Plant response rating (0 to 100), Barnyardgrass","barnyardgrass [6]; 250 g ai/ha, postemergence",15
same,"Plant response rating, Barnyardgrass","barnyardgrass [6]; Postemergence, 62 g ai/ha",5
same,Ragweed plant response rating,ragweed; [10],25
same,"Plant response rating, Ragweed",ragweed; [11],55
same,"Plant response rating (0 to 100), Ragweed","ragweed; 250 g ai/ha, postemergence",85
same,"Plant response rating, Ragweed",ragweed; [12],40
same,"Oat, Wild plant response rating",wild oat; [10],15
same,"Plant response rating, Oat, Wild",wild oat; [11],25
same,"Plant response rating (0 to 100), Oat, Wild","wild oat; 250 g ai/ha, postemergence",20
same,"Plant response rating, Oat, Wild",wild oat; [12],15
same,Morningglory plant response rating,morningglory [7]; [10],85
same,"Plant response rating, Morningglory",morningglory [7]; [11],95
same,"Plant response rating (0 to 100), Morningglory","morningglory [7]; 250 g ai/ha, postemergence",95
same,"Plant response rating, Morningglory",morningglory [7]; [12],80
same,Velvetleaf plant response rating (0 to 100 scale),velvetleaf [8],100
same,Velvetleaf plant response rating,velvetleaf [8],100
same,Morningglory plant response rating (0 to 100 scale),morningglory [9],90
same,Morningglory plant response rating,morningglory [9],100
Clc1cnc(Oc2cccc(Cl)c2-n2cc(Cl)cn2)nc1 [Compound 220],Pigweed plant response rating (0 to 100 scale),pigweed [1],100
same,Pigweed plant response rating,pigweed [1],100
same,"Plant response rating (0 to 100), Pigweed",pigweed [2]; [13],65
same,Pigweed plant response rating,pigweed [2]; [10],75
same,"Plant response rating, Pigweed",pigweed [2]; [11],90
same,"Plant response rating, Pigweed",pigweed [2]; [12],85
same,"Plant response rating (0 to 100), Kochia",kochia; [13],90
same,Kochia plant response rating,kochia; [10],90
same,"Plant response rating, Kochia",kochia; [11],95
same,"Plant response rating, Kochia",kochia; [12],95
same,"Plant response rating (0 to 100), Velvetleaf",velvetleaf [3]; [13],30
same,Velvetleaf plant response rating,velvetleaf [3]; [10],50
same,"Plant response rating, Velvetleaf",velvetleaf [3]; [11],60
same,"Plant response rating, Velvetleaf",velvetleaf [3]; [12],65
same,"Plant response rating (0 to 100), Blackgrass",blackgrass; [13],0
same,Blackgrass plant response rating,blackgrass; [10],60
same,"Plant response rating, Blackgrass",blackgrass; [11],50
same,"Plant response rating, Blackgrass",blackgrass; [12],40
same,Wheat plant response rating,wheat,10
same,"Plant response rating, Wheat",wheat,60
same,Morningglory plant response rating,morningglory [4],50
same,"Plant response rating, Morningglory",morningglory [4],100
same,"Barnyardgrass plant response rating (0 to 100 scale, 0 is no effect, 100 is complete control)",barnyardgrass [5],60
same,Barnyardgrass plant response rating,barnyardgrass [5],100
same,"Plant response rating, Ducksalad",Heteranthera limosa,100
same,"Plant response rating (0 to 100), Barnyardgrass",barnyardgrass [6]; [13],5
same,Barnyardgrass plant response rating,"barnyardgrass [6]; postemergence, visual rating",10
same,"Plant response rating, Barnyardgrass",barnyardgrass [6]; [11],15
same,"Plant response rating, Barnyardgrass","barnyardgrass [6]; Postemergence, 62 g ai/ha",10
same,"Plant response rating (0 to 100), Ragweed",ragweed; [13],10
same,Ragweed plant response rating,ragweed; [10],10
same,"Plant response rating, Ragweed",ragweed; [11],25
same,"Plant response rating, Ragweed",ragweed; [12],15
same,"Plant response rating (0 to 100), Oat, Wild",wild oat; [13],5
same,"Oat, Wild plant response rating",wild oat; [10],25
same,"Plant response rating, Oat, Wild",wild oat; [11],50
same,"Plant response rating, Oat, Wild",wild oat; [12],35
same,"Plant response rating (0 to 100), Morningglory",morningglory [7]; [13],15
same,Morningglory plant response rating,morningglory [7]; [10],50
same,"Plant response rating, Morningglory",morningglory [7]; [11],50
same,"Plant response rating, Morningglory",morningglory [7]; [12],40
same,Velvetleaf plant response rating (0 to 100 scale),velvetleaf [8],20
same,Velvetleaf plant response rating,velvetleaf [8],70
same,Morningglory plant response rating (0 to 100 scale),morningglory [9],0
same,Morningglory plant response rating,morningglory [9],40
